Assay results as given in article PMC2880392 (Bioorganic & medicinal chemistry letters, 2010).
Where two headings read alike, the source gives them in different places.

Tests used:
Type in all cases: cell-based
[1] = system: IIIB strain of HIV-1 (WT); test: Anti-HIV-1 activity, protection of infected MT-2 cells; conditions: for EC50: Human immunodeficiency virus 1, IIIB; for anti-HIV-1 activity in words: wild-type HIV-1, MT-2 cells
[2] = system: HIV-1 K103N/Y181C variant strain; test: Anti-HIV-1 activity in MT-2 cells, K103N/Y181C variant strain; conditions: Human immunodeficiency virus 1, MT2, read-out: K103N/Y181C EC50
[3] = system: HIV-1 Y181C variant strain; test: Anti-HIV-1 activity in MT-2 cells, Y181C variant strain; conditions: Human immunodeficiency virus 1, MT2, read-out: Y181C EC50
[4] = MT2, read-out: Anti-HIV-1 Activity (EC50)

Compound: Clc1cccc(Cl)c1Cc1nnc(Nc2ccc(COCc3ccoc3)cc2)o1 [Compound 1g]
- EC50 [1, 4]: > 21000 nM

Compound: OCc1ccc(Nc2ncc(Cc3c(F)cccc3F)o2)cc1Cl [Compound 3m]
- enhancement of WT activity by addition of the chlorine (factor) ([1]; 3m versus 3i): 15

Compound: [O-][n+]1ccc(OCc2ccc(Nc3ncc(Cc4c(F)cccc4F)o3)cc2Cl)cc1 [Compound 3o]
- EC50 [2]: > 2100 nM
- EC50 [3]: > 2700 nM

Compound: Cc1ccnc2c1NC(=O)c1cccnc1N2C1CC1 [nevirapine, reference compound]
- EC50 [2]: > 2100 nM

Compound: Fc1cccc(F)c1Cc1cnc(Nc2ccc(-c3cccnc3)c(Cl)c2)o1 [Compound 3v]
- anti-HIV-1 activity in words [1]: good activity
- EC50 [2]: > 2100 nM

Compound: Clc1cccc(Cl)c1Cc1nnc(Nc2ccc(COCc3ccccc3)cc2)o1 [Compound 1b]
- EC50 [1, 4]: > 21000 nM
- anti-HIV-1 activity in words [1]: inactivity

Compound: N#Cc1ccc(Nc2ncc(Cc3c(F)cccc3F)o2)cc1 [Compound 3p]
- EC50 [3]: > 2700 nM

Compound: O=C1Nc2ccc(Cl)cc2[C@@](C#CC2CC2)(C(F)(F)F)O1 [evafirenz, reference compound]
- EC50 ([1]; MT2, read-out: WT EC50): 2 nM

Compound: Clc1cccc(Cl)c1Cc1nnc(Nc2ccc(COCc3ccsc3)cc2)o1 [Compound 1h]
- EC50 [1, 4]: > 21000 nM

Compound: N#Cc1ccc(Nc2ncc(Cc3c(F)cccc3F)o2)cc1Cl [Compound 3q]
- EC50 [2]: > 2100 nM

Compound: Fc1cccc(F)c1Cc1cnc(Nc2ccc(-c3ccncc3)c(Cl)c2)o1 [Compound 3u]
- anti-HIV-1 activity in words [1]: good activity
